Data as given in patent publication US20200318189A1 (CHANG GUNG MEMORIAL HOSPITAL, LINKOU, priority 2017, published 2020).

Key:
[1] = tested on: HLA-A*0207 and HLA-B*1502 alleles

Nc1nnc(-c2cccc(Cl)c2Cl)c(N)n1 [lamotrigine, Lamotrigine]
Sensitivity (%) (HLA-A*0207 allele): 42.31%
Specificity (%) (HLA-A*0207 allele): 83.18%
Sensitivity (%) (HLA-B*1502 allele): 26.92%
Specificity (%) (HLA-B*1502 allele): 90.33%
Sensitivity (%) [1]: 61.54%
Specificity (%) [1]: 73.51%
